Experiment in all cases: radial diffusion assay, antimicrobial effect
What all share (assay type): cell-based
What all share (parameters): key: (+) means the formation of an inhibition halo; (−) means no formation of an inhibition halo

The test system of assay [1] is Escherichia coli. An excerpt:
(§1) In a radial diffusion assay, the activities stated in Table 1 could be measured for the peptides against different bacterial strains. In the Table, (+) means the formation of an inhibition halo, and (−) means no formation of an inhibition halo.

Assay [2] relates to Saccharomyces cerevisiae.
Description: as §1

For assay [3], the system named is Staphylococcus carnosus.
Description: as §1

Bridge positions count the residues as written; N and C are the ends. Ends that are not written are not given here.

With “FIGLRRCLMGLGRCRDHCNVDEKEIQKCKMKKCCVGPKVVKLIK (disulfide 7-33, 14-28, 18-34) [hBD19]”, the “formation of an inhibition halo” value was “(+)” in assay [1], “(−)” in assay [2] and “(+)” in assay [3].

With “NTICHMQQGICRLFFCHSGEKKRGICSDPWNRCCVSNTDEEGKEKPEMD (disulfide 4-33, 11-26, 16-34) [hBD10]”, the “formation of an inhibition halo” value in assay [1], in assay [2] and in assay [3] was “(+)” each time.

As to “TPGGTQRCWNLYGKCRYRCSKKERVYVYCINNKMCCVKPKYQPKERWWPF (disulfide 8-35, 15-29, 19-36) [hBD17]”, the “formation of an inhibition halo” value in assay [1], in assay [2] and in assay [3] was “(+)” each time.

The values above are taken from patent publication US20040116652A1, “Method for producing and using novel human defensins as biologically active proteins for treating infections and other diseases” (priority 2000, published 2004).
